PMC10733307, “Dual species sphingosine-1-phosphate lyase inhibitors to combine antifungal and anti-inflammatory activities in cystic fibrosis: a feasibility study” (Scientific Reports, 2023)

Columns and labels:
AfuSPL [1] = biological target: T1, AfuSPL (Aspergillus fumigatus, UniProt Q4WPU3); experiment: fluorimetric lyase assay; format: biochemical; conditions: 1 mM inhibitor, fluorogenic S1P substrate, pH 7.4, 37 °C
T1 construct: gene AFUA_4G10470; cytosolic catalytic domain, Δ1-81, C-terminal His tag, pET28, E. coli BL21 with GroEL/GroES (pGro7), about 50 kDa subunit, dimer
T1 sequence (Q4WPU3 82-572): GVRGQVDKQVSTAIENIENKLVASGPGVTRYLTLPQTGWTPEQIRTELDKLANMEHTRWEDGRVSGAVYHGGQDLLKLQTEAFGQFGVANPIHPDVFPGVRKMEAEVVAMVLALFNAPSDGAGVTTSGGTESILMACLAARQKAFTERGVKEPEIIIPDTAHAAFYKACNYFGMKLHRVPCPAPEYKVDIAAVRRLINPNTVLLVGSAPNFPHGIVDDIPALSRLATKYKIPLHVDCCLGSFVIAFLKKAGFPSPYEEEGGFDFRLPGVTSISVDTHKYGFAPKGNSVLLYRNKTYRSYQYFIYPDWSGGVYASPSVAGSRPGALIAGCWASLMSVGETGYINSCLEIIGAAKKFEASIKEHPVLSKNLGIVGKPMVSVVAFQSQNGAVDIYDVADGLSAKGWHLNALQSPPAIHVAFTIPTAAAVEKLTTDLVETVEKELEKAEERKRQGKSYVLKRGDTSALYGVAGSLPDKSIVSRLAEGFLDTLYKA

hSPL = biological target: T2, hSPL (Homo sapiens, UniProt O95470); experiment: fluorimetric lyase assay, global fit to competitive inhibition model; format: biochemical
T2 construct: gene SGPL1
T2 sequence (O95470 81-568): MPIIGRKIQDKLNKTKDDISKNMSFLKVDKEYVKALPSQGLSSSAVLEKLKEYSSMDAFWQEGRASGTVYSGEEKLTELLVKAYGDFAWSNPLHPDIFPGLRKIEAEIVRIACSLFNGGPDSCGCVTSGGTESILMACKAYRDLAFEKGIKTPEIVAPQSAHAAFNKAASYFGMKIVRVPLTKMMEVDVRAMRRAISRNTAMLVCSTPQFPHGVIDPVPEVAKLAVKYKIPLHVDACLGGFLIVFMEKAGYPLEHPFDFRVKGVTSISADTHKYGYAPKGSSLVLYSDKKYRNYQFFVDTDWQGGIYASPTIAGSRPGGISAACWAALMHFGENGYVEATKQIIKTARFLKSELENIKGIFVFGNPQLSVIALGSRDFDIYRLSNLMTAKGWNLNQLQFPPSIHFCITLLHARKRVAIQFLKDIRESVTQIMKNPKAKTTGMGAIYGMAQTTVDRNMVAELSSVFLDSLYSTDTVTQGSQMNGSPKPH
From the text: fluorimetric lyase assay, global fit to competitive inhibition model on hSPL | From a global fitting of the data we estimated their KI values

AfuSPL [2] = biological target: T1, AfuSPL; experiment: as above; format: biochemical
From the text: fluorimetric lyase assay, global fit to competitive inhibition model on AfuSPL | From a global fitting of the data we estimated their KI values

[3] = test system: N[C@@H](COP(=O)(O)O)[C@H](O)CCOc1ccc2ccc(=O)oc2c1; experiment: purified protein; conditions: 100 mM Hepes pH 7.4, 0.1 mM EDTA, 0.05% Triton X-100, 100 μM PLP, 37 °C

With `C[C@@H]1CN(c2nnc(Cc3ccccc3)c3ccc(Cl)cc23)CCN1c1ccc(C#N)cn1` [30J, 6-[(2R)-4-(4-benzyl-7-chlorophthalazin-1-yl)-2-methylpiperazin-1-yl]pyridine-3-carbonitrile] the “% inhibition at 1 mM” value (AfuSPL [1]) was “without any significant effect on the activity of AfuSPL”.
In the case of `CCCOC(=O)c1c(NC(=O)CCCC(=O)Nc2sc3c(c2C(=O)OCCC)CCCCC3)sc2c1CCCCC2` [C17], the Ki (hSPL) is reported as 240 ± 50 µM and the Ki (AfuSPL [2]) is reported as 270 ± 80 µM.
With AfuSPL (Aspergillus fumigatus Af293) the Km [3] was 3.1 ± 0.4 mM and the kcat [3] was 0.103 ± 0.007 s⁻¹.
